Patent US9204653B2, “5-fluoro pyrimidine derivatives” (DOW AGROSCIENCES LLC, priority 2008, dated 2015)
Like-named read-outs stand apart in the source and are kept apart here.

Test system: Mycosphaerella graminicola; Anamorph: Septoria tritici; Bayer Code SEPTTR
Test: Leaf blotch of wheat, foliar fungicide treatment, one day protectant (1DP) or three day curative (3DC)
Format: in vivo, Septoria tritici on wheat plants (variety Yuma)
Details: Zymoseptoria tritici; for pest or weed control at 50 ppm / pest or weed control at 200 ppm: % disease control rating
[1] = 24 h, one day protectant, 25 ppm, rating of percent disease control, read-out: SETTTR 1DP 25 ppm
[2] = 24 h, one day protectant, rating of percent disease control, read-out: SEPTTR 1DP 100 ppm
[3] = 72 h, three day curative, 25 ppm, rating of percent disease control, read-out: SEPTTR 3DC 25 ppm
[4] = 72 h, three day curative, rating of percent disease control, read-out: SEPTTR 3DC 100 ppm
[5] = 24 h, one day protectant (1DP), 25 ppm, percent disease control rating, read-out: SETTTR 1DP 25 ppm
[6] = 24 h, one day protectant (1DP), percent disease control rating, read-out: SEPTTR 1DP 100 ppm
[7] = 72 h, three day curative (3DC), 25 ppm, percent disease control rating, read-out: SEPTTR 3DC 25 ppm
[8] = 72 h, three day curative (3DC), percent disease control rating, read-out: SEPTTR 3DC 100 ppm
[9] = 24 h, one day protectant (1DP), 25 ppm, rating of percent disease control, read-out: SETTTR 1DP 25 ppm
[10] = 24 h, one day protectant (1DP), rating of percent disease control, read-out: SEPTTR 1DP 100 ppm
[11] = 72 h, three day curative (3DC), 25 ppm, rating of percent disease control, read-out: SEPTTR 3DC 25 ppm
[12] = 72 h, three day curative (3DC), rating of percent disease control, read-out: SEPTTR 3DC 100 ppm

Row | Compound | pest or weed control at 25 ppm [9] [%] | pest or weed control at 100 ppm [10] [%] | pest or weed control at 25 ppm [11] [%] | pest or weed control at 100 ppm [12] [%] | other results
1 | Fc1ccccc1CNc1nc(OCCc2ccccc2)ncc1F [Compound 948] |  |  |  |  | pest or weed control at 50 ppm (24 h, one day protectant): 0 to 25%; pest or weed control at 200 ppm (24 h, one day protectant): 0 to 25%
2 | N#Cc1cccc(COc2ncc(F)c(NC(=O)Nc3ccccc3)n2)c1 [Compound 555] |  |  |  |  | pest or weed control at 25 ppm [1]: 0 to 25%; pest or weed control at 100 ppm [2]: 0 to 25%; pest or weed control at 25 ppm [3]: 0 to 25%; pest or weed control at 100 ppm [4]: 0 to 25%
3 | CC(Oc1ncc(F)c(NSc2ccccc2[N+](=O)[O-])n1)c1ccc(F)cc1 (stereo not shown) [Compound 126] |  |  |  |  | pest or weed control at 25 ppm [5]: 76 to 100%; pest or weed control at 100 ppm [6]: 76 to 100%; pest or weed control at 25 ppm [7]: 76 to 100%; pest or weed control at 100 ppm [8]: 76 to 100%
4 | COc1cccc(COc2ncc(F)c(NNC3CCCCC3)n2)c1 [Compound 294] | 0 to 25 | 76 to 100 | 0 to 25 | 76 to 100 | 
5 | Fc1cnc(OCc2ccco2)nc1NCCc1ccccc1 [Compound 827] |  |  |  |  | pest or weed control at 50 ppm (24 h, one day protectant): 0 to 25%; pest or weed control at 200 ppm (24 h, one day protectant): 26 to 50%
6 | COc1ccccc1S(=O)(=O)Nc1nc(O)ncc1F [Compound 1102] |  |  |  |  | pest or weed control at 25 ppm (24 h, one day protectant (1DP), 25 ppm (first 1DP column), percent control rating, read-out: SETTTR 1DP 25 ppm): 0 to 25%; pest or weed control at 25 ppm (24 h, one day protectant (1DP), 25 ppm as printed (second 1DP column), percent control rating, read-out: SETTTR 1DP 25 ppm): 0 to 25%; pest or weed control at 25 ppm (72 h, three day curative (3DC), 25 ppm, percent control rating, read-out: SEPTTR 3DC 25 ppm): 26 to 50%; pest or weed control at 100 ppm (72 h, three day curative (3DC), percent control rating, read-out: SEPTTR 3DC 100 ppm): 26 to 50%
7 | Nc1nc(OCCc2ccccc2Cl)ncc1F [Compound 240] | 0 to 25 | 26 to 50 | 0 to 25 | 0 to 25 | 
8 | NN(c1ccccc1)c1nc(OCc2ccccc2)ncc1F [Compound 482] | 0 to 25 | 0 to 25 | 0 to 25 | 26 to 50 | 
9 | Fc1ccccc1CNc1nc(OCc2ccc(OC(F)(F)F)cc2)ncc1F [Compound 953] |  |  |  |  | pest or weed control at 50 ppm (24 h, one day protectant): 26 to 50%; pest or weed control at 200 ppm (24 h, one day protectant): 76 to 100%
10 | Nc1nc(OCc2ccc(Cl)cc2Cl)ncc1F [Compound 540] | 76 to 100 | 76 to 100 | 76 to 100 | 76 to 100 | 
11 | Cc1ccc(COc2ncc(F)c(NCc3cnc(C)cn3)n2)cc1 [Compound 916] |  |  |  |  | pest or weed control at 50 ppm (24 h, one day protectant): 76 to 100%; pest or weed control at 200 ppm (24 h, one day protectant): 76 to 100%
12 | Cn1ccc2cc(COc3ncc(F)c(N)n3)ccc21 [Compound 511] | 51 to 75 | 51 to 75 | 26 to 50 | 26 to 50 | 
13 | CCOCNc1nc(OCc2ccccc2)ncc1F [Compound 753] | 76 to 100 | 76 to 100 | 76 to 100 | 76 to 100 | 
14 | COc1ccc(COc2ncc(F)c(/N=C/N(C)C)n2)cc1F [Compound 663] |  |  |  |  | pest or weed control at 25 ppm [1]: 76 to 100%; pest or weed control at 100 ppm [2]: 76 to 100%; pest or weed control at 25 ppm [3]: 76 to 100%; pest or weed control at 100 ppm [4]: 76 to 100%
15 | COCCOC(=O)Nc1nc(OCc2ccc(F)cc2)ncc1F [Compound 280] | 76 to 100 | 76 to 100 | 76 to 100 | 76 to 100 | 
16 | Cc1ccc(COc2ncc(F)c(NC(=O)Cc3ccccc3)n2)cc1 [Compound 497] | 51 to 75 | 76 to 100 | 0 to 25 | 26 to 50 | 
17 | COc1ccccc1COc1ncc(F)c(NC(=O)Cc2ccccc2)n1 [Compound 86] |  |  |  |  | pest or weed control at 25 ppm [5]: 26 to 50%; pest or weed control at 100 ppm [6]: 51 to 75%; pest or weed control at 25 ppm [7]: 0 to 25%; pest or weed control at 100 ppm [8]: 0 to 25%
18 | CC(C)Oc1ncc(F)c(N)n1 [Compound 267] | 0 to 25 | 0 to 25 | 0 to 25 | 0 to 25 | 
19 | CCCNC(=O)Nc1nc(OCc2cccc(OC)c2)ncc1F [Compound 534] | 0 to 25 | 26 to 50 | 0 to 25 | 26 to 50 | 
20 | CC[Si](CC)(CC)Nc1nc(OCc2ccc(F)cc2)ncc1F [Compound 8, [5-Fluoro-2-(4-fluorobenzyloxy)pyrimidin-4-yl]triethylsilanylamine] |  |  |  |  | pest or weed control at 25 ppm [5]: 76 to 100%; pest or weed control at 100 ppm [6]: 76 to 100%; pest or weed control at 25 ppm [7]: 76 to 100%; pest or weed control at 100 ppm [8]: 76 to 100%
21 | Fc1ccc(COc2ncc(F)c(NCc3cccs3)n2)cc1F [Compound 890] |  |  |  |  | pest or weed control at 200 ppm (24 h, one day protectant): 76 to 100%
